Results: publication PMC5650741 (ACS infectious diseases, 2017)

Molecular target: T1, E. coli DXP synthase (DXPS) (Escherichia coli, UniProt P77488)
T1 sequence (P77488 2-620): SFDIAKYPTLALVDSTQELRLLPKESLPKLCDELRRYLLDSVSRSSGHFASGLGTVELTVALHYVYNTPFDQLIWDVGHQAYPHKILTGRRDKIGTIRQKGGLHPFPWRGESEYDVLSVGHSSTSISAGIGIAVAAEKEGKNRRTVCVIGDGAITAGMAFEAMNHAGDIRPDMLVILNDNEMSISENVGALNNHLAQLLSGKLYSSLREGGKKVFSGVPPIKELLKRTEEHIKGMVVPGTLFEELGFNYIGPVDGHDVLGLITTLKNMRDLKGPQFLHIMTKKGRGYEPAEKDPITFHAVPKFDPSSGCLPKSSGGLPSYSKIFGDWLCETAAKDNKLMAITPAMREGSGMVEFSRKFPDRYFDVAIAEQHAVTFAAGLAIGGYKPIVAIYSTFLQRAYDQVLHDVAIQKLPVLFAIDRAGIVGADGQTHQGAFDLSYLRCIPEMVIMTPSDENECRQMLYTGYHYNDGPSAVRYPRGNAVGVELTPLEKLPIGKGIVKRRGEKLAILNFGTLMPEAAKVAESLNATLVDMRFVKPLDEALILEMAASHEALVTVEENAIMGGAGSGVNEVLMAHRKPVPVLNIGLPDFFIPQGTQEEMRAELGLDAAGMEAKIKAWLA
Test: IspC-coupled NADPH consumption at […] nm
Type: biochemical

`CCCOP(=O)(O)C(C)=O` [compound 3, alkylAP 3] gave a Ki of 7.1 ± 0.8 µM.

With `CCCCCCCCOP(=O)(O)C(C)=O` [compound 7, octylacetylphosphonate] the Ki was 1.4 ± 0.2 µM.
